For 42 molecules, IC50 results are on record in US10239843B2 (CANCER RESEARCH TECHNOLOGY LIMITED, priority 2014, dated 2019).

For the experiment, the target named is Human Full Length PARG (Homo sapiens (Human), UniProt Q86W56). Briefly: PARG enzyme assay (TR-FRET). To be noted: read-out: PARG Biochem IC50 Geomean. It counts as biochemical.
Chain of Human Full Length PARG (Q86W56 whole entry): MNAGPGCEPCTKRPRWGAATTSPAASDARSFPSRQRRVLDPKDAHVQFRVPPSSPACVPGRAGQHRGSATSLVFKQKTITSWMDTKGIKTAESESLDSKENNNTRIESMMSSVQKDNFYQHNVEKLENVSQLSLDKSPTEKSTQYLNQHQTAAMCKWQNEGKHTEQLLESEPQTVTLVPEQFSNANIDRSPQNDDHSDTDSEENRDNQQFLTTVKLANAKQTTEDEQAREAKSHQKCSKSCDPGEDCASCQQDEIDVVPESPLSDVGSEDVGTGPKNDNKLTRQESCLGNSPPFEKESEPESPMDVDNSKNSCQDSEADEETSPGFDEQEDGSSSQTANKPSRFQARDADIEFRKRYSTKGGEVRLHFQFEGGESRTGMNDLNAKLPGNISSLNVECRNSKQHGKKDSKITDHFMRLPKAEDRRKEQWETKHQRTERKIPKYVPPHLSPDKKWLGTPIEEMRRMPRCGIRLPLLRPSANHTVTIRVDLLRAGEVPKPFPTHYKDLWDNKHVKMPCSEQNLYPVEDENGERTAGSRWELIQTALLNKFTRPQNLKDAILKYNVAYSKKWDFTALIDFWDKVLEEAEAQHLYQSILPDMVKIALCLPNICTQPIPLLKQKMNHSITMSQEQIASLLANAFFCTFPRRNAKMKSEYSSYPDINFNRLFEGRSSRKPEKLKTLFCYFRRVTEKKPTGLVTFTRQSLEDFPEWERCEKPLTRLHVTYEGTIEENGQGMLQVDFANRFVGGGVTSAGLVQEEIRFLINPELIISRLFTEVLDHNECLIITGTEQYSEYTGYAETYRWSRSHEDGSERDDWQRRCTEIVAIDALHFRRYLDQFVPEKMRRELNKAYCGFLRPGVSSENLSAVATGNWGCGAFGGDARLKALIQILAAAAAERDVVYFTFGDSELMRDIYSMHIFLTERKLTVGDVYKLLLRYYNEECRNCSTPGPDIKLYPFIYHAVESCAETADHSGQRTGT
Usually IC50 stands for the midpoint of a concentration-inhibition curve. Turning to `Cn1c(=O)c2cc(S(=O)(=O)NC3(C)CC3)ccc2n(Cc2nccs2)c1=O` [Example 146], the IC50 was 0.671 µM.

Take `Cn1c(=O)n(Cc2cncs2)c(=O)c2cc(S(=O)(=O)NC3(C)CC3)ccc21` [Example 147]: the 50% inhibitory concentration (IC50) is 1.21 µM.

As for `Cn1c(=O)c2cc(S(=O)(=O)NC3(C)CC3)ccc2n(Cc2cscn2)c1=O` [Example 148], the IC50 turned out to be 0.855 µM.

Turning to `Cc1csc(Cn2c(=O)c3cc(S(=O)(=O)NC4(C)CC4)ccc3n(C)c2=O)n1` [Example 150], the IC50 is 4.78 µM.

In the case of `Cn1cncc1Cn1c(=O)c2cc(S(=O)(=O)NC3(C)CC3)ccc2n(C)c1=O` [Example 154], the IC50 was 3.31 µM.

On to `Cc1cc(COc2nc3ccc(S(=O)(=O)NC4(C)CC4)cc3c(=O)n2Cc2c(C)noc2C)n(C)n1` [Example 167], for which the IC50 is 0.7 µM.

For the molecule `Cn1c(=O)c2cc(S(=O)(=O)NC3(C)CC3)ccc2n(CC#N)c1=O` [Example 175], the IC50 was 4.41 µM.

For `Cc1nc(C(F)(F)F)c(Cn2c(=O)c3cc(S(=O)(=O)NC4(C)CC4)ccc3n(C)c2=O)s1` [Example 179], the half-inhibitory concentration (IC50) was found to be 0.725 µM.

On to `Cn1c(=O)n(CC(=O)N2CCOCC2)c(=O)c2cc(S(=O)(=O)NC3(C)CC3)ccc21` [Example 182], for which the IC50 stood at 4.41 µM.

As for `Cc1ncoc1Cn1c(=O)c2cc(S(=O)(=O)NC3(C)CC3)ccc2n(C)c1=O` [Example 188], the IC50 came out at 1.84 µM.

As to `Cc1nc(C)c(Cn2c(=O)c3cc(S(=O)(=O)NC4(C)CC4)ccc3n(C)c2=O)o1` [Example 189], the half-inhibitory concentration (IC50) is 1.33 µM.

On to `Cc1noc(Cn2c(=O)c3cc(S(=O)(=O)NC4(C)CC4)ccc3n(C)c2=O)n1` [Example 190], for which the IC50 was 3.18 µM.

Take `Cc1nnsc1Cn1c(=O)c2cc(S(=O)(=O)NC3(C)CC3)ccc2n(C)c1=O` [Example 191]: the half-maximal inhibitory concentration (IC50) amounted to 0.877 µM.

Consider `Cc1cc(Cn2c(=O)c3cc(S(=O)(=O)NC4(C)CC4)ccc3n(C)c2=O)n[nH]1` [Example 195], for which the IC50 was 3.22 µM.

As for `Cc1nc(C)c(Cn2c(=O)n(C)c(=O)c3cc(S(=O)(=O)NC(C)(C)C)ccc32)s1` [Example 202], the IC50 came to 1.39 µM.

As for `Cn1c(=O)n(Cc2cnn(CC(N)=O)c2)c(=O)c2cc(S(=O)(=O)NC3(C)CC3)ccc21` [Example 203], the IC50 turned out to be 0.635 µM.

Take `Cc1cc(Cn2c(=O)c3cc(S(=O)(=O)NC4(C)CC4)cnc3n(C)c2=O)on1` [Example 205]: the IC50 amounted to 2.6 µM.

On to `Cc1cc(Cn2cc(Cl)c3ccc(S(=O)(=O)NC4(C)CC4)cc3c2=O)on1` [Example 209, 4-Chloro-N-(1-methylcyclopropyl)-2-[(3-methylisoxazol-5-yl)methyl]-1-oxo-isoquinoline-7-sulfonamide], for which the IC50 came to 1.64 µM.

Turning to `Cc1cc(Cn2cnc3ccc(S(=O)(=O)NC4(C)CC4)cc3c2=O)on1` [Example 210], the IC50 was determined as 1.23 µM.

`Cn1c(=O)[nH]c2cc(F)c(S(=O)(=O)NC3(C)CC3)cc2c1=O` [Example 211, 7-Fluoro-3-methyl-N-(1-methylcyclopropyl)-2,4-dioxo-1H-quinazoline-6-sulfonamide]: the 50% inhibitory concentration (IC50) came out at 1.56 µM.

For `COc1ccc(Cn2cc(Cn3c(=O)c4cc(S(=O)(=O)NC5(C)CC5)ccc4n(C)c3=O)cn2)cc1` [Example 212], the IC50 came to 1.37 µM.

As for `Cn1c(=O)n(Cc2cnn(Cc3ccccc3)c2)c(=O)c2cc(S(=O)(=O)NC3(C)CC3)ccc21` [Example 215], the IC50 was 0.592 µM.

For the molecule `C#CCn1cc(Cn2c(=O)c3cc(S(=O)(=O)NC4(C)CC4)ccc3n(C)c2=O)cn1` [Example 216], the IC50 amounted to 0.56 µM.

As for `Cn1c(=O)n(Cc2cnn(CC3CC3)c2)c(=O)c2cc(S(=O)(=O)NC3(C)CC3)ccc21` [Example 218], the 50% inhibitory concentration (IC50) was determined as 0.681 µM.

With `CN(C)CCn1cc(Cn2c(=O)c3cc(S(=O)(=O)NC4(C)CC4)ccc3n(C)c2=O)cn1` [Example 219], the concentration for half-maximal inhibition (IC50) was 2.48 µM.

Regarding `Cc1cc(Cn2c(=O)[nH]c3ccc(S(=O)(=O)NC4(C)CC4)cc3c2=O)on1` [Example 221, N-(1-methylcyclopropyl)-3-[(3-isoxazol-5-yl)methyl]-2,4-dioxo-1H-quinazoline-6-sulfonamide], the half-inhibitory concentration (IC50) came to 0.649 µM.

On to `CC1(NS(=O)(=O)c2ccc3[nH]c(=O)n(CC(N)=O)c(=O)c3c2)CC1` [Example 223, 2-[6-[(1-Methylcyclopropyl)sulfamoyl]-2,4-dioxo-1H-quinazolin-3-yl]acetamide], for which the IC50 is 7.47 µM.

In the case of `Cn1c(=O)c2cc(S(=O)(=O)NC3(C)CC3)c(F)cc2n(C)c1=O` [Example 224], the half-inhibitory concentration (IC50) stood at 1.44 µM.

With `Cn1c(=O)c2cc(S(=O)(=O)NC3(C)CC3)cc(F)c2n(C)c1=O` [Example 225], the half-maximal inhibitory concentration (IC50) was 7.49 µM.

Turning to `Cn1c(=O)n(Cc2ccno2)c(=O)c2cc(S(=O)(=O)NC3(C)CC3)ccc21` [Example 226], the IC50 was 1.18 µM.

For `Cn1nc(Cl)c2ccc(S(=O)(=O)NC3(C)CC3)cc2c1=O` [Example 227, 1-Chloro-3-methyl-N-(1-methylcyclopropyl)-4-oxo-phthalazine-6-sulfonamide], the half-maximal inhibitory concentration (IC50) was found to be 5.14 µM.

Turning to `CNc1nn(C)c(=O)c2cc(S(=O)(=O)NC3(C)CC3)ccc12` [Example 234, 3-Methyl-1-(methylamino)-N-(1-methylcyclopropyl)-4-oxo-phthalazine-6-sulfonamide], the IC50 was determined as 1.98 µM.

Turning to `CN1CCCC(Cn2c(=O)n(Cc3cnn(C)c3)c(=O)c3cc(S(=O)(=O)NC4(C)CC4)ccc32)C1` (stereo not drawn) [Example 236], the IC50 was found to be 6.74 µM.

Turning to `CC1(NS(=O)(=O)c2ccc3[nH]c(=O)n(C4CC4)c(=O)c3c2)CC1` [Example 240, 3-Cyclopropyl-N-(1-methylcyclopropyl)-2,4-dioxo-1H-quinazoline-6-sulfonamide], the IC50 worked out at 4.12 µM.

On to `Cc1cc(Cn2c(=O)n(C3CC3)c(=O)c3cc(S(=O)(=O)NC4(C)CC4)ccc32)n(C)n1` [Example 241], for which the IC50 was determined as 0.642 µM.

On to `Cc1cc(Cn2ccc3ccc(S(=O)(=O)NC4(C)CC4)cc3c2=O)on1` [Example 242, N-(1-Methylcyclopropyl)-2-[(3-methylisoxazol-5-yl)methyl]-1-oxo-isoquinoline-7-sulfonamide], for which the IC50 was 7.35 µM.

For `CNc1nn(Cc2cc(C)no2)c(=O)c2cc(S(=O)(=O)NC3(C)CC3)ccc12` [Example 244, 1-(methylamino)-N-(1-methylcyclopropyl)-3-[(3-methylisoxazol-5-yl)methyl]-4-oxo-phthalazine-6-sulfonamide], the IC50 amounted to 0.666 µM.

For `Cc1cc(Cn2c(=O)c3cc(S(=O)(=O)NC4(C)CC4)ccc3n(CCN3CCCC3)c2=O)on1` [Example 248], the 50% inhibitory concentration (IC50) is 0.521 µM.

Regarding `Cn1cc(-c2ccc(F)cc2)c2ccc(S(=O)(=O)NC3(C)CC3)cc2c1=O` [Example 255, 4-(4-Fluorophenyl)-2-methyl-N-(1-methylcyclopropyl)-1-oxo-isoquinoline-7-sulfonamide], the IC50 amounted to 8.53 µM.

`Cc1cc(Cn2cc(C)c3ccc(S(=O)(=O)NC4(C)CC4)cc3c2=O)on1` [Example 256, 4-Methyl-N-(1-methylcyclopropyl)-2-[(3-methylisoxazol-5-yl)methyl]-1-oxo-isoquinoline-7-sulfonamide]: the half-maximal inhibitory concentration (IC50) is 1.28 µM.

In the case of `Cc1cc(Cn2c(=O)c3cc(S(=O)(=O)NC4CC4)ccc3n(C)c2=O)on1` [Example 260], the IC50 is 3.79 µM.

As to `CCC1(NS(=O)(=O)c2ccc3c(c2)c(=O)n(Cc2cc(C)no2)c(=O)n3C)CC1` [Example 261], the IC50 turned out to be 3.04 µM.
